From patent EP0082648A2, “Cephalosporin derivatives” (IMPERIAL CHEMICAL INDUSTRIES PLC, priority 1981, dated 1983)
Values after ≈ are worked out from the molar mass of the structure shown.

Tests used:
[1] = Toxicity observation after subcutaneous administration to mice; assay type: in vivo; settings: dose four times the minimum effective dose which protected 50% of the mice against infection with Salmonella dublin
Experimental: Thus the compound 7-(4-[3-(3-cyano-2-methylisothioureido)propyl]imidazol-2-yl)amino-3-(1-methyl-lH-tetrazol-5-yl)thiomethylceph-3-em-4-carboxylic acid (Example 4) was administered subcutaneously to mice at a dose four times that of the minimum effective dose which protected 50% of the mice against infection with Salmonella dublin.

E. coli = experiment: In vitro agar dilution MIC test, Jewell and Pearmain agar medium; assay type: cell-based; settings: Escherichia coli, Code A8, inoculum size ~10^5 CFU
Text: (§1) The results set out in the following Table are illustrative of the biological activity of one of the preferred compounds of the present invention, that of Example 4. The following results are those obtained on a standard in vitro test system using Jewell and Pearmain agar medium. The antibacterial activity is described in terms of the minimum inhibitory concentration (MIC) determined by agar - dilution technique with an inoculum size of ~10^5 CFU.

Ent. cloacae = experiment: as above; assay type: cell-based; settings: Enterobacter cloacae, Code A13, inoculum size ~10^5 CFU
Text: as §1

Staph. aureus = experiment: as above; assay type: cell-based; settings: Staphylococcus aureus, Code A6, inoculum size ~10^5 CFU
Text: as §1

Serratia marescens = experiment: as above; assay type: cell-based; settings: Code A16, inoculum size ~10^5 CFU
Text: as §1

Strep. pyogenes = experiment: as above; assay type: cell-based; settings: Streptococcus pyogenes, Code A1, inoculum size ~10^5 CFU
Text: as §1

Salmonella dublin = experiment: as above; assay type: cell-based; settings: Salmonella enterica, Code A20, inoculum size ~10^5 CFU
Text: as §1

Proteus mirabilis = experiment: as above; assay type: cell-based; settings: Code A18, inoculum size ~10^5 CFU
Text: as §1

K. aerogenes = experiment: as above; assay type: cell-based; settings: Klebsiella aerogenes, Code A10, inoculum size ~10^5 CFU
Text: as §1

Ps. aeruginosa = experiment: as above; assay type: cell-based; settings: Pseudomonas aeruginosa, Code A21, inoculum size ~10^5 CFU
Text: as §1

CSC(=NC#N)NCCCc1c[nH]c(NC2C(=O)N3C(C(=O)O)=C(CSc4nnnn4C)CS[C@H]23)n1 (stereo partly shown) [Example 4, 7-(4-[3-(3-cyano-2-methylisothioureido)propyl]imidazol-2-yl)amino-3-(1-methyl-1H-tetrazol-5-yl)thiomethylceph-3-em-4-carboxylic acid]
overt toxic symptoms or side effects [1]: No overt toxic symptoms or side effects attributable to the administered compound were noted
MIC (E. coli): 0.06 µg/mL (≈ 0.109 µM)
MIC (Ent. cloacae): 32 µg/mL (≈ 58.2 µM)
MIC (Staph. aureus): 16 µg/mL (≈ 29.1 µM)
MIC (Serratia marescens): 4 µg/mL (≈ 7.28 µM)
MIC (Strep. pyogenes): 8 µg/mL (≈ 14.6 µM)
MIC (Salmonella dublin): 0.03 µg/mL (≈ 0.0546 µM)
MIC (Proteus mirabilis): 1 µg/mL (≈ 1.82 µM)
MIC (K. aerogenes): 0.12 µg/mL (≈ 0.218 µM)
MIC (Ps. aeruginosa): > 128 µg/mL
